# Data: PubChem BioAssay AID330 (DTP/NCI, 2004)
# Several values for one entry are separate records, joined by “and”; a condition that tells them apart may be missing. Equal values may be shown once. Toxic doses and inconclusive results are not listed.
# System: P388 leukemia ip, CD2F1 mice, survival T/C
# Test: NCI In Vivo Anticancer Drug Screen. Data for tumor model P388 Leukemia (intraperitoneal) in CD2F1 (CDF1) mice
# Conditions: endpoint: median survival time, higher = longer survival
# Procedure, shortened: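 Mice carrying the transplanted tumor received test compound or vehicle. Survival was recorded in each group, and the value is the treated-group measurement divided by that of the vehicle-treated control group.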
# [1] = dose: 50.0 mg/kg/injection, schedule: Q01DX009 (ip), vehicle: saline with Tween-80
# [2] = dose: 100.0 mg/kg/injection, schedule: Q01DX009 (ip), vehicle: saline with Tween-80
# [3] = dose: 200.0 mg/kg/injection, schedule: Q01DX009 (ip), vehicle: saline with Tween-80
# [4] = dose: 100.0 mg/kg/injection, schedule: Q04DX002 (ip), vehicle: saline with Tween-80
# [5] = dose: 200.0 mg/kg/injection, schedule: Q04DX002 (ip), vehicle: saline with Tween-80
# [6] = dose: 400.0 mg/kg/injection, schedule: Q04DX002 (ip), vehicle: saline with Tween-80
# [7] = dose: 50.0 mg/kg/injection, schedule: Q01DX009 (ip), vehicle: Klucel (hydroxypropylcellulose) (HPC)
# [8] = dose: 100.0 mg/kg/injection, schedule: Q01DX009 (ip), vehicle: Klucel (hydroxypropylcellulose) (HPC)
# [9] = dose: 200.0 mg/kg/injection, schedule: Q01DX009 (ip), vehicle: Klucel (hydroxypropylcellulose) (HPC)
# [10] = dose: 50.0 mg/kg/injection, schedule: Q01DX005 (ip), vehicle: saline
# [11] = dose: 100.0 mg/kg/injection, schedule: Q01DX005 (ip), vehicle: saline
# [12] = dose: 200.0 mg/kg/injection, schedule: Q01DX005 (ip), vehicle: saline
# [13] = dose: 100.0 mg/kg/injection, schedule: Q04DX003 (ip), vehicle: saline sonified
# [14] = dose: 200.0 mg/kg/injection, schedule: Q04DX003 (ip), vehicle: saline sonified
# [15] = dose: 100.0 mg/kg/injection, schedule: Q04DX003 (ip), vehicle: saline with Tween-80
# [16] = dose: 200.0 mg/kg/injection, schedule: Q04DX003 (ip), vehicle: saline with Tween-80
# [17] = dose: 400.0 mg/kg/injection, schedule: Q04DX003 (ip), vehicle: saline with Tween-80
# [18] = dose: 50.0 mg/kg/injection, schedule: Q01DX005 (ip), vehicle: saline with Tween-80
# [19] = dose: 100.0 mg/kg/injection, schedule: Q01DX005 (ip), vehicle: saline with Tween-80
# [20] = dose: 200.0 mg/kg/injection, schedule: Q01DX005 (ip), vehicle: saline with Tween-80
compound,measurement,setting,value
C=CC[P+](CC[P+](CC=C)(c1ccccc1)c1ccccc1)(c1ccccc1)c1ccccc1,T/C,"dose: 6.25 mg/kg/injection, schedule: Q04DX002 (ip), vehicle: saline",102 % of control
same,T/C,"dose: 12.5 mg/kg/injection, schedule: Q04DX002 (ip), vehicle: saline",96 % of control
CC(C)(C)CC(C)(C)c1ccc(OCc2ccc(Cl)cc2)cc1,T/C,[1],100 % of control
same,T/C,[2],100 % of control
same,T/C,[3],98 % of control
Nc1cccc(-n2ccnc2)c1,T/C,[4],100 % of control
same,T/C,[5],93 % of control
same,T/C,[6],90 % of control
CCCCCCCCCCCCCCCCCC[N+]1([O-])CCOCC1,T/C,"dose: 50.0 mg/kg/injection, schedule: Q01DX009 (ip), vehicle: saline",98 % of control
same,T/C,"dose: 100.0 mg/kg/injection, schedule: Q01DX009 (ip), vehicle: saline",96 % of control
CC1=Nc2ccccc2C(=O)NN1,T/C,[4],101 % of control
same,T/C,[5],101 % of control
same,T/C,[6],102 % of control
Cc1ccc(NC(=S)SCc2ccc(Cl)c(Cl)c2)cc1C,T/C,[7],116 % of control
same,T/C,"dose: 50.0 mg/kg/injection, schedule: Q01DX009 (ip), vehicle: suspension in saline",96 % of control
same,T/C,[8],113 % of control
same,T/C,"dose: 100.0 mg/kg/injection, schedule: Q01DX009 (ip), vehicle: suspension in saline",100 % of control
same,T/C,[9],109 % of control
same,T/C,"dose: 200.0 mg/kg/injection, schedule: Q01DX009 (ip), vehicle: suspension in saline",101 % of control
CC1C(c2ccccc2)OCN1C (stereo not given),T/C,"dose: 12.5 mg/kg/injection, schedule: Q01DX005 (ip), vehicle: saline",110 % of control and 88 % of control
same,T/C,"dose: 25.0 mg/kg/injection, schedule: Q01DX005 (ip), vehicle: saline",100 % of control and 116 % of control
same,T/C,[10],110 % of control [middle of 5 runs]
same,T/C,[11],118 % of control and 109 % of control
same,T/C,[12],116 % of control
CCN(CC)C(=S)S,T/C,[13],95 % of control
same,T/C,[14],100 % of control
same,T/C,"dose: 400.0 mg/kg/injection, schedule: Q04DX003 (ip), vehicle: saline sonified",90 % of control
CNc1nc(N)nc(Nc2ccc(I)cc2)c1N=O,T/C,[15],109 % of control
same,T/C,[16],109 % of control
same,T/C,[17],109 % of control
Cc1cc(NC(=O)SCCOC(=O)COc2ccc(Cl)cc2)ccc1Cl,T/C,[15],100 % of control
same,T/C,[16],95 % of control
same,T/C,[17],90 % of control
COC(=O)C(=O)C(C)C(=O)C(C)c1nc2n(c1O)C(=N)N=N2 (stereo not given),T/C,[10],98 % of control
same,T/C,[11],97 % of control
same,T/C,[12],96 % of control
COC1OC2COC(c3ccccc3)OC2C(N=Cc2ccccc2)C1O (stereo not given),T/C,"dose: 60.0 mg/kg/injection, schedule: Q01DX005 (ip), vehicle: saline with Tween-80",104 % of control
same,T/C,"dose: 120.0 mg/kg/injection, schedule: Q01DX005 (ip), vehicle: saline with Tween-80",103 % of control
same,T/C,"dose: 240.0 mg/kg/injection, schedule: Q01DX005 (ip), vehicle: saline with Tween-80",100 % of control
COc1ccc2nc(C)cc(N/N=C/c3cccnc3)c2c1,T/C,"dose: 6.25 mg/kg/injection, schedule: Q01DX009 (ip), vehicle: Klucel (hydroxypropylcellulose) (HPC)",101 % of control
same,T/C,"dose: 12.5 mg/kg/injection, schedule: Q01DX009 (ip), vehicle: Klucel (hydroxypropylcellulose) (HPC)",104 % of control
same,T/C,"dose: 25.0 mg/kg/injection, schedule: Q01DX009 (ip), vehicle: Klucel (hydroxypropylcellulose) (HPC)",113 % of control
O=C1C(=O)N(c2cccc(Cl)c2)C(=O)N1Cc1ccccc1,T/C,[7],98 % of control
same,T/C,[8],104 % of control
same,T/C,[9],104 % of control
COc1ccc(C(c2c(O)cc(C)[nH]c2=O)c2c(O)cc(C)[nH]c2=O)cc1F,T/C,[1],97 % of control
same,T/C,[2],96 % of control
same,T/C,[3],95 % of control
CCC(C)C1=NCCCN1 (stereo not given),T/C,"dose: 100.0 mg/kg/injection, schedule: Q01DX001 (ip), vehicle: saline",100 % of control
CCOC(=O)C(C(C)O)C1CC=CC1 (stereo not given),T/C,[18],108 % of control
same,T/C,[19],100 % of control
same,T/C,[20],104 % of control
CC1(C)CC2(C)OC2C2(C1)N=NC(=O)O2 (stereo not given),T/C,"dose: 50.0 mg/kg/injection, schedule: Q01DX009 (ip), vehicle: saline + alcohol",90 % of control
same,T/C,[1],89 % of control
same,T/C,"dose: 100.0 mg/kg/injection, schedule: Q01DX009 (ip), vehicle: saline + alcohol",100 % of control
same,T/C,[2],87 % of control
same,T/C,"dose: 200.0 mg/kg/injection, schedule: Q01DX009 (ip), vehicle: saline + alcohol",93 % of control
same,T/C,"dose: 400.0 mg/kg/injection, schedule: Q01DX009 (ip), vehicle: saline + alcohol",108 % of control
CC(C)(C)OOC(=O)c1ccccc1O,T/C,[13],100 % of control
same,T/C,[14],100 % of control
CC1=COC(C)(C2NC(C)(C)CC(C)O2)CC1 (stereo not given),T/C,[10],107 % of control
same,T/C,[11],103 % of control
same,T/C,[12],102 % of control
Cc1cc([N+](=O)[O-])c(C)cc1Cl,T/C,"dose: 37.5 mg/kg/injection, schedule: Q04DX003 (ip), vehicle: saline sonified",118 % of control
same,T/C,"dose: 75.0 mg/kg/injection, schedule: Q04DX003 (ip), vehicle: saline sonified",100 % of control
same,T/C,"dose: 150.0 mg/kg/injection, schedule: Q04DX003 (ip), vehicle: saline sonified",118 % of control
COc1cc2cc3c4cc(OC)c(OC)cc4cc(C)[n+]3cc2cc1OC,T/C,"dose: 12.5 mg/kg/injection, schedule: Q01DX009 (ip), vehicle: water",155 % of control
same,T/C,"dose: 25.0 mg/kg/injection, schedule: Q01DX009 (ip), vehicle: water",180 % of control
same,T/C,"dose: 50.0 mg/kg/injection, schedule: Q01DX009 (ip), vehicle: water",170 % of control
same,T/C,"dose: 100.0 mg/kg/injection, schedule: Q01DX009 (ip), vehicle: water",163 % of control
CSCCC(NCc1c(O)ccc2c(C)cc(=O)oc12)C(=O)O (stereo not given),T/C,"dose: 60.0 mg/kg/injection, schedule: Q01DX005 (ip), vehicle: Klucel (hydroxypropylcellulose) (HPC)",93 % of control
same,T/C,"dose: 120.0 mg/kg/injection, schedule: Q01DX005 (ip), vehicle: Klucel (hydroxypropylcellulose) (HPC)",98 % of control
same,T/C,"dose: 240.0 mg/kg/injection, schedule: Q01DX005 (ip), vehicle: Klucel (hydroxypropylcellulose) (HPC)",99 % of control
N=c1c(C(=O)OCc2ccccc2)ncc(CCl)n1O,T/C,"dose: 25.0 mg/kg/injection, schedule: Q01DX009 (ip), vehicle: saline with Tween-80",114 % of control
same,T/C,[1],124 % of control
same,T/C,[2],123 % of control
same,T/C,[3],116 % of control
C=C(C)C12CC(C)C34OC(CCCCCCCCC)(OC1C3C1OC1(CO)C(O)C1(O)C(=O)C(C)=CC14)O2 (stereo not given),T/C,"dose: 3.0 micrograms/kg/injection, schedule: Q01DX009 (ip), vehicle: saline + alcohol",107 % of control
same,T/C,"dose: 5.0 micrograms/kg/injection, schedule: Q01DX009 (ip), vehicle: saline + alcohol",109 % of control
same,T/C,"dose: 10.0 micrograms/kg/injection, schedule: Q01DX009 (ip), vehicle: saline + alcohol",105 % of control
same,T/C,"dose: 20.0 micrograms/kg/injection, schedule: Q01DX009 (ip), vehicle: saline + alcohol",109 % of control
same,T/C,"dose: 40.0 micrograms/kg/injection, schedule: Q01DX009 (ip), vehicle: saline + alcohol",116 % of control
N#CC(C(=O)C(=O)Nc1cccc(C(F)(F)F)c1)c1c(Cl)cccc1Cl (stereo not given),T/C,[18],98 % of control
same,T/C,[19],100 % of control
same,T/C,[20],100 % of control
COc1nncc(-c2cnnc(OC)n2)n1,T/C,"dose: 3.13 mg/kg/injection, schedule: Q01DX009 (ip), vehicle: saline with Tween-80",105 % of control
same,T/C,"dose: 6.25 mg/kg/injection, schedule: Q01DX009 (ip), vehicle: saline with Tween-80",100 % of control
same,T/C,"dose: 12.5 mg/kg/injection, schedule: Q01DX009 (ip), vehicle: saline with Tween-80",102 % of control
